Like-named read-outs stand apart in the source and are kept apart here.

Data set [1] has as its system SK-HEP-1 hepatoma cells. The data set can be described thus: SK-Hep-1 invasion/migration, live cell transwell assay. In kind it is cell-based, human. Conditions: for effect on SK-Hep-1 invasion in words: live cell transwell assay.
Data set [2] is described as follows: Solubility in aqueous buffer. In kind it is physicochemical. Conditions: pH range 5.0–7.4.
The nature of data set [3]: PAMPA permeability. In kind it is in vitro ADME.
In data set [4] the test system is SK-HEP-1 tumor.
A short description of data set [5]: Stability in mouse plasma. The format is in vitro ADME.
Data set [6] addresses T1, human CXCR6 receptor (Homo sapiens, UniProt O00574). In kind it is cell-based.
Data set [7] is described as follows: Rapid Assessment of Compound Exposure. In kind it is in vivo, mouse.
Data set [8] in a line: Plasma protein binding. The format is in vitro ADME.
Data set [9] in a line: Metabolic stability in mouse liver microsomes. The format is in vitro ADME. To be noted: within 1h.
Data set [10] concerns the target T1, human CXCR6 receptor. In words: Antagonism of CXCL16. The format is cell-based. Conditions: vs ML339.
The subject of data set [11] is human liver microsomes. In words: Metabolic stability in human liver microsomes. The format is in vitro ADME. Conditions: within 1h.
Data set [12] is described as follows: Stability in human plasma. In kind it is in vitro ADME.
For data set [13], the target named is CCR6 human receptor. To be noted: read-out: IC50 against CCR6; previously reported; cited from earlier work.
In data set [14] the target is CXCR4 human receptor. To be noted: read-out: IC50 against CXCR4; previously reported; cited from earlier work.
Data set [15] concerns the target CXCR5 human receptor. To be noted: read-out: IC50 against CXCR5; previously reported; cited from earlier work.

T1 sequence (O00574 whole entry): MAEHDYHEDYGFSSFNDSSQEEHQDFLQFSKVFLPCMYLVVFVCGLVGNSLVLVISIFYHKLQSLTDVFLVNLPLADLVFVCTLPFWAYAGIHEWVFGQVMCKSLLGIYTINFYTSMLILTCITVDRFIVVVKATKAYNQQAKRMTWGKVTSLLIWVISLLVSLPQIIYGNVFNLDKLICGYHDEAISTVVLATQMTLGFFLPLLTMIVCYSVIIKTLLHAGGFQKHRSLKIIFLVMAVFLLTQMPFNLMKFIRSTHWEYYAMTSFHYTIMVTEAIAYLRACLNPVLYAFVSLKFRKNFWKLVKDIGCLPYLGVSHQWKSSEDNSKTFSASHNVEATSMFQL

Usually EC50 stands for the concentration giving half of the maximal effect. High values mean lower potency in that assay, low ones higher potency in that assay. As to `COc1cc(C(=O)N[C@@H]2C[C@H]3CCC[C@@H](C2)N3Cc2nc3c(C(F)(F)F)cccc3s2)cc(OC)c1OC` [Compound 81], the “cell viability in words” value in data set [1] (SK-HEP-1, 72 h) is “without loss in cell viability”. In data set [2], the solubility in words result was “good solubility”. The “PAMPA permeability in words” value in [3] is “good PAMPA permeability”. In addition, the “SK-HEP-1 tumor growth vs vehicle in words” value in data set [4] (30 mg/kg oral, Day 4 to Day 30, P < 0.0005) is “significantly inhibited”; in [4] (60 mg/kg oral, Day 4 to Day 30, P < 0.0002), “significantly inhibited”. Moreover, in data set [4] (30 and 60 mg/kg, 30-day study), the “toxicity to mice in words” value is given as “non-toxic”. Besides, the “stability in mouse plasma in words” value in [5] is reported as “excellent stability”. The compound further came in with an EC50 in [6] of 0.04 µM. Further, the “fold improvement in potency in β-arrestin assay” value in data set [6] (vs ML339) is recorded as at least 10 fold. Besides, the “exposure in RACE assay in words” value in [7] (10 mg/kg oral dose, DMSO: Tw80: H2O (1:1:8)) was “good exposure”. Further, the bioavailability in words result in [7] (mice) is given as “good bioavailability”. Further, the “plasma protein binding in words” value in data set [8] is “high plasma protein binding”. Moreover, in [9], the “metabolism in mouse liver microsomes in words” value is given as “almost completely metabolized”. In [10], the “fold improvement in potency in cAMP assay” value is given as at least 10 fold. For the same compound, the “metabolism in human liver microsomes in words” value in data set [11] is “almost completely metabolized”. In addition, the “stability in human plasma in words” value in [12] is “excellent stability”.

By IC50 is commonly meant the point on the concentration scale where inhibition reaches its midpoint. Take `COc1cc(C(=O)N[C@@H]2C[C@H]3CCC[C@@H](C2)N3CC(=O)Nc2ccccc2Cl)cc(OC)c1OC` [Compound 17]: the IC50 in data set [13], in data set [14] and in data set [15] was above 80 µM in each case.

With `COc1cc(C(=O)N[C@@H]2C[C@H]3CCC[C@@H](C2)N3CC(=O)c2nc3ccccc3s2)cc(OC)c1OC` [Compound 72], the “fold loss in activity” value in data set [6] (carbonyl linkage, comparator not named) came to 100 fold.

As to `COc1cc(C(=O)N[C@@H]2C[C@H]3CCC[C@@H](C2)N3Cc2ccccc2Cl)cc(OC)c1OC` [Compound 59], the “fold lower activity than compound 17” value in data set [6] (vs compound 17) is given as 48 fold.

For `COc1cc(C(=O)N[C@@H]2C[C@H]3CCC[C@@H](C2)N3Cc2nc3c(Cl)cccc3s2)cc(OC)c1OC` [Compound 73], the “effect on SK-Hep-1 invasion in words” value in [1] was “inhibited invasion”.

As to `O=C(CN1[C@@H]2CCC[C@H]1C[C@H](NC(=O)c1ccccc1)C2)Nc1ccccc1` [Compound 6], the “effect on SK-Hep-1 invasion in words” value in data set [1] is recorded as “had no effect”.

Values taken from article PMC8011643 (Bioorganic & medicinal chemistry letters, 2019).
